# Source: US6706740B2, “Fungicidal heterocyclic aromatic amides and their compositions, methods of use and preparation” (Dow AgroSciences LLC, priority 1999, dated 2004)
# Tested on: Magnaporthe grisea (Pyricularia oryzae—PYRIOR)
# Test: microbe, parasite or virus in culture
# Format: cell-based
# Details: Pyricularia oryzae, read-out: PYRIOR in vitro Growth Inhibition
row,SMILES,inhibition at 25 ppm [%]
1,CC1(C)CC(NC(=O)c2nscc2O)CC(C)(C)C1 [Compound 549],< 80
2,CSc1nnc(C(=O)NC2CC(C)(C)CC(C)(C)C2)c(O)n1 [Compound 545],< 80
3,COc1ccnc(C(=O)Nc2ccc(Cc3cccc(C(F)(F)F)c3)cc2)c1O [Compound 404],< 80
4,COc1ccnc(C(=O)N[C@H]2COC(=O)[C@H](CC3CCCC3)[C@@H](OC(=O)C(C)C)[C@H](C)OC2=O)c1O [Compound 402],< 80

# Tested on: Rhizoctonia solani (RHIZSO)
# Test: microbe, parasite or virus in culture
# Format: cell-based
# Details: Rhizoctonia solani, read-out: RHIZSO in vitro Growth Inhibition
row,SMILES,inhibition at 25 ppm [%]
1,CC1(C)CC(NC(=O)c2nscc2O)CC(C)(C)C1 [Compound 549],< 80
2,CSc1nnc(C(=O)NC2CC(C)(C)CC(C)(C)C2)c(O)n1 [Compound 545],< 80
3,COc1ccnc(C(=O)Nc2ccc(Cc3cccc(C(F)(F)F)c3)cc2)c1O [Compound 404],< 80
4,COc1ccnc(C(=O)N[C@H]2COC(=O)[C@H](CC3CCCC3)[C@@H](OC(=O)C(C)C)[C@H](C)OC2=O)c1O [Compound 402],< 80

# Tested on: Mycosphaerella graminicola (Septoria tritici—SEPTTR)
# Test: In vitro fungal growth inhibition, Mycosphaerella graminicola (SEPTTR)
# Format: cell-based
# Details: Zymoseptoria tritici; 25 ppm in growth medium; read-out: SEPTTR in vitro Growth Inhibition
row,SMILES,inhibition at 25 ppm [%]
1,COc1ccnc(C(=O)Nc2ccc(Cc3cccc(C(F)(F)F)c3)cc2)c1O [Compound 404],< 80
2,COc1ccnc(C(=O)N[C@H]2COC(=O)[C@H](CC3CCCC3)[C@@H](OC(=O)C(C)C)[C@H](C)OC2=O)c1O [Compound 402],< 80

# Same assay, conditions: Zymoseptoria tritici; 25 ppm in the growth medium; read-out: SEPTTR in vitro Growth Inhibition
row,SMILES,inhibition at 25 ppm [%]
1,CC1(C)CC(NC(=O)c2nscc2O)CC(C)(C)C1 [Compound 549],> 80
2,CSc1nnc(C(=O)NC2CC(C)(C)CC(C)(C)C2)c(O)n1 [Compound 545],< 80

# Tested on: Stagonospora nodorum (Leptosphaeria nodorum—LEPTNO)
# Test: In vitro fungal growth inhibition, Stagonospora nodorum (LEPTNO)
# Format: cell-based
# Details: Leptosphaeria; 25 ppm in growth medium; read-out: LEPTNO in vitro Growth Inhibition
row,SMILES,inhibition at 25 ppm [%]
1,COc1ccnc(C(=O)Nc2ccc(Cc3cccc(C(F)(F)F)c3)cc2)c1O [Compound 404],< 80
2,COc1ccnc(C(=O)N[C@H]2COC(=O)[C@H](CC3CCCC3)[C@@H](OC(=O)C(C)C)[C@H](C)OC2=O)c1O [Compound 402],> 80

# Same assay, conditions: Leptosphaeria; 25 ppm in the growth medium; read-out: LEPTNO in vitro Growth Inhibition
row,SMILES,inhibition at 25 ppm [%]
1,CC1(C)CC(NC(=O)c2nscc2O)CC(C)(C)C1 [Compound 549],< 80
2,CSc1nnc(C(=O)NC2CC(C)(C)CC(C)(C)C2)c(O)n1 [Compound 545],< 80

# Tested on: Ustilago maydis (USTIMA)
# Test: microbe, parasite or virus in culture
# Format: cell-based
# Details: Mycosarcoma maydis, read-out: USTIMA in vitro Growth Inhibition
row,SMILES,inhibition at 25 ppm [%]
1,CC1(C)CC(NC(=O)c2nscc2O)CC(C)(C)C1 [Compound 549],< 80
2,CSc1nnc(C(=O)NC2CC(C)(C)CC(C)(C)C2)c(O)n1 [Compound 545],< 80
3,COc1ccnc(C(=O)Nc2ccc(Cc3cccc(C(F)(F)F)c3)cc2)c1O [Compound 404],> 80
4,COc1ccnc(C(=O)N[C@H]2COC(=O)[C@H](CC3CCCC3)[C@@H](OC(=O)C(C)C)[C@H](C)OC2=O)c1O [Compound 402],< 80

# Tested on: Phytophthora infestans (PHYTIN)
# Test: microbe, parasite or virus in culture
# Format: cell-based
# Details: Phytophthora infestans, read-out: PHYTIN in vitro Growth Inhibition
row,SMILES,inhibition at 25 ppm [%]
1,CC1(C)CC(NC(=O)c2nscc2O)CC(C)(C)C1 [Compound 549],> 80
2,CSc1nnc(C(=O)NC2CC(C)(C)CC(C)(C)C2)c(O)n1 [Compound 545],> 80
3,COc1ccnc(C(=O)Nc2ccc(Cc3cccc(C(F)(F)F)c3)cc2)c1O [Compound 404],< 80
4,COc1ccnc(C(=O)N[C@H]2COC(=O)[C@H](CC3CCCC3)[C@@H](OC(=O)C(C)C)[C@H](C)OC2=O)c1O [Compound 402],< 80

# Tested on: Phytophthora infestans—PHYTIN
# Test: whole plant or invertebrate
# Format: in vivo
# Details: Phytophthora, in Solanum lycopersicum, 24 h, read-out: PHYTIN in vivo 1 Day Protectant
row,SMILES,pest or weed control at 100 ppm [%]
1,CC1(C)CC(NC(=O)c2nscc2O)CC(C)(C)C1 [Compound 549],< 25
2,CSc1nnc(C(=O)NC2CC(C)(C)CC(C)(C)C2)c(O)n1 [Compound 545],25 to 74
3,COc1ccnc(C(=O)Nc2ccc(Cc3cccc(C(F)(F)F)c3)cc2)c1O [Compound 404],< 25
4,COc1ccnc(C(=O)N[C@H]2COC(=O)[C@H](CC3CCCC3)[C@@H](OC(=O)C(C)C)[C@H](C)OC2=O)c1O [Compound 402],< 25

# Tested on: Puccinia recondita—PUCCRT
# Test: Brown Rust of Wheat, in vivo whole plant, 24 Hour Protectant
# Details: Puccinia; 100 ppm spray, wheat, 24 hour protectant; control of fungal infection vs untreated plants; read-out: PUCCRT in vivo 1 Day Protectant
row,SMILES,pest or weed control at 100 ppm [%]
1,COc1ccnc(C(=O)Nc2ccc(Cc3cccc(C(F)(F)F)c3)cc2)c1O [Compound 404],25 to 74
2,COc1ccnc(C(=O)N[C@H]2COC(=O)[C@H](CC3CCCC3)[C@@H](OC(=O)C(C)C)[C@H](C)OC2=O)c1O [Compound 402],25 to 74

# Same assay, conditions: Puccinia; wheat plants sprayed at 100 ppm, inoculated after 24 hours; control of fungal infection vs untreated plants; read-out: PUCCRT in vivo 1 Day Protectant
row,SMILES,pest or weed control at 100 ppm [%]
1,CC1(C)CC(NC(=O)c2nscc2O)CC(C)(C)C1 [Compound 549],< 25
2,CSc1nnc(C(=O)NC2CC(C)(C)CC(C)(C)C2)c(O)n1 [Compound 545],25 to 74

# Tested on: Erysiphe graminis—ERYSGT
# Test: Powdery Mildew of Wheat, in vivo whole plant, 24 Hour Protectant
# Details: 100 ppm spray, wheat, 24 hour protectant; control of fungal infection vs untreated plants
row,SMILES,ERYSGT in vivo 1 Day Protectant
1,COc1ccnc(C(=O)N[C@H]2COC(=O)[C@H](CC3CCCC3)[C@@H](OC(=O)C(C)C)[C@H](C)OC2=O)c1O [Compound 402],+ +

# Same assay, conditions: Erysiphe; 100 ppm spray, wheat, 24 hour protectant; control of fungal infection vs untreated plants; read-out: ERYSGT in vivo 1 Day Protectant
row,SMILES,pest or weed control at 100 ppm [%]
1,COc1ccnc(C(=O)Nc2ccc(Cc3cccc(C(F)(F)F)c3)cc2)c1O [Compound 404],25 to 74

# Same assay, conditions: Erysiphe; wheat plants sprayed at 100 ppm, inoculated after 24 hours; control of fungal infection vs untreated plants; read-out: ERYSGT in vivo 1 Day Protectant
row,SMILES,pest or weed control at 100 ppm [%]
1,CC1(C)CC(NC(=O)c2nscc2O)CC(C)(C)C1 [Compound 549],< 25
2,CSc1nnc(C(=O)NC2CC(C)(C)CC(C)(C)C2)c(O)n1 [Compound 545],< 25

# Tested on: Septoria tritici—SEPTTR
# Test: Leaf Blotch of Wheat, in vivo whole plant, 24 Hour Protectant
# Details: Zymoseptoria tritici, 24 h, 100 ppm spray, wheat, 24 hour protectant; control of fungal infection vs untreated plants; read-out: SEPTTR in vivo 1 Day Protectant
row,SMILES,pest or weed control at 100 ppm [%]
1,COc1ccnc(C(=O)Nc2ccc(Cc3cccc(C(F)(F)F)c3)cc2)c1O [Compound 404],25 to 74
2,COc1ccnc(C(=O)N[C@H]2COC(=O)[C@H](CC3CCCC3)[C@@H](OC(=O)C(C)C)[C@H](C)OC2=O)c1O [Compound 402],25 to 74

# Same assay, conditions: Zymoseptoria tritici, 24 h, wheat plants sprayed at 100 ppm, inoculated after 24 hours; control of fungal infection vs untreated plants; read-out: SEPTTR in vivo 1 Day Protectant
row,SMILES,pest or weed control at 100 ppm [%]
1,CC1(C)CC(NC(=O)c2nscc2O)CC(C)(C)C1 [Compound 549],25 to 74
2,CSc1nnc(C(=O)NC2CC(C)(C)CC(C)(C)C2)c(O)n1 [Compound 545],25 to 74

# Tested on: Leptosphaeria nodorum—LEPTNO
# Test: Glume Blotch of Wheat, in vivo whole plant, 24 Hour Protectant
# Details: 100 ppm spray, wheat, 24 hour protectant; control of fungal infection vs untreated plants
row,SMILES,LEPTNO in vivo 1 Day Protectant
1,COc1ccnc(C(=O)N[C@H]2COC(=O)[C@H](CC3CCCC3)[C@@H](OC(=O)C(C)C)[C@H](C)OC2=O)c1O [Compound 402],+ +

# Same assay, conditions: Leptosphaeria; 100 ppm spray, wheat, 24 hour protectant; control of fungal infection vs untreated plants; read-out: LEPTNO in vivo 1 Day Protectant
row,SMILES,pest or weed control at 100 ppm [%]
1,COc1ccnc(C(=O)Nc2ccc(Cc3cccc(C(F)(F)F)c3)cc2)c1O [Compound 404],25 to 74

# Same assay, conditions: Leptosphaeria; wheat plants sprayed at 100 ppm, inoculated after 24 hours; control of fungal infection vs untreated plants; read-out: LEPTNO in vivo 1 Day Protectant
row,SMILES,pest or weed control at 100 ppm [%]
1,CC1(C)CC(NC(=O)c2nscc2O)CC(C)(C)C1 [Compound 549],25 to 74
2,CSc1nnc(C(=O)NC2CC(C)(C)CC(C)(C)C2)c(O)n1 [Compound 545],25 to 74

# Tested on: not given
# Test: not given
# Details: not given
row,SMILES,melting point [°C]
1,CC1(C)CC(NC(=O)c2nscc2O)CC(C)(C)C1 [Compound 549],121 to 125
2,CSc1nnc(C(=O)NC2CC(C)(C)CC(C)(C)C2)c(O)n1 [Compound 545],265 to 268
3,COc1ccnc(C(=O)Nc2ccc(Cc3cccc(C(F)(F)F)c3)cc2)c1O [Compound 404],126 to 127
4,COc1ccnc(C(=O)N[C@H]2COC(=O)[C@H](CC3CCCC3)[C@@H](OC(=O)C(C)C)[C@H](C)OC2=O)c1O [Compound 402],182 to 184
